Experimental data as given in the NIST ThermoML archive (doi:10.1016/j.fluid.2019.05.003).
± gives the expanded uncertainty stated by the source.

Assay: xn = mol fraction of the nth substance listed
Conditions: 101 kPa, Liquid; for viscosity: Falling or rolling sphere viscometry; for mass density: Vibrating tube method

OCC[n+]1ccccc1.[Br-] [1-(2-hydroxyethyl)pyridinium bromide] + O
viscosity (298.15 K, x1 = 0.022): 1.138 ± 0.069 mPa·s | viscosity (298.15 K, x1 = 0.045): 1.415 ± 0.086 mPa·s | viscosity (298.15 K, x1 = 0.066): 1.761 ± 0.11 mPa·s | viscosity (298.15 K, x1 = 0.085): 2.174 ± 0.13 mPa·s | viscosity (298.15 K, x1 = 0.114): 2.918 ± 0.18 mPa·s | viscosity (298.15 K, x1 = 0.152): 4.134 ± 0.25 mPa·s | viscosity (298.15 K, x1 = 0.195): 6.391 ± 0.39 mPa·s | viscosity (298.15 K, x1 = 0.226): 8.964 ± 0.54 mPa·s | viscosity (298.15 K, x1 = 0.261): 11.93 ± 0.72 mPa·s | mass density (298.15 K, x1 = 0.022): 1071.4 ± 0.6 kg/m3 | mass density (298.15 K, x1 = 0.045): 1131.4 ± 0.5 kg/m3 | mass density (298.15 K, x1 = 0.066): 1177.3 ± 0.5 kg/m3 | mass density (298.15 K, x1 = 0.085): 1211 ± 0.4 kg/m3 | mass density (298.15 K, x1 = 0.114): 1256.4 ± 0.4 kg/m3 | mass density (298.15 K, x1 = 0.152): 1296.4 ± 0.4 kg/m3 | mass density (298.15 K, x1 = 0.195): 1334.4 ± 0.4 kg/m3 | mass density (298.15 K, x1 = 0.226): 1356.7 ± 0.5 kg/m3 | mass density (298.15 K, x1 = 0.261): 1377.5 ± 0.5 kg/m3 | viscosity (303.15 K, x1 = 0.022): 1.04 ± 0.063 mPa·s | viscosity (303.15 K, x1 = 0.045): 1.268 ± 0.077 mPa·s | viscosity (303.15 K, x1 = 0.066): 1.576 ± 0.095 mPa·s | viscosity (303.15 K, x1 = 0.085): 1.937 ± 0.12 mPa·s | viscosity (303.15 K, x1 = 0.114): 2.577 ± 0.16 mPa·s | viscosity (303.15 K, x1 = 0.152): 3.62 ± 0.22 mPa·s | viscosity (303.15 K, x1 = 0.195): 5.528 ± 0.34 mPa·s | viscosity (303.15 K, x1 = 0.226): 7.799 ± 0.47 mPa·s | viscosity (303.15 K, x1 = 0.261): 10.25 ± 0.62 mPa·s | mass density (303.15 K, x1 = 0.022): 1069.5 ± 0.6 kg/m3 | mass density (303.15 K, x1 = 0.045): 1129.2 ± 0.5 kg/m3 | mass density (303.15 K, x1 = 0.066): 1174.8 ± 0.5 kg/m3 | mass density (303.15 K, x1 = 0.085): 1208.3 ± 0.4 kg/m3 | mass density (303.15 K, x1 = 0.114): 1251.9 ± 0.4 kg/m3 | mass density (303.15 K, x1 = 0.152): 1293.5 ± 0.4 kg/m3 | mass density (303.15 K, x1 = 0.195): 1331.4 ± 0.4 kg/m3 | mass density (303.15 K, x1 = 0.226): 1353.6 ± 0.5 kg/m3 | mass density (303.15 K, x1 = 0.261): 1374.3 ± 0.5 kg/m3 | viscosity (308.15 K, x1 = 0.022): 0.947 ± 0.057 mPa·s | viscosity (308.15 K, x1 = 0.045): 1.148 ± 0.069 mPa·s | viscosity (308.15 K, x1 = 0.066): 1.424 ± 0.086 mPa·s | viscosity (308.15 K, x1 = 0.085): 1.744 ± 0.11 mPa·s | viscosity (308.15 K, x1 = 0.114): 2.309 ± 0.14 mPa·s | viscosity (308.15 K, x1 = 0.152): 3.233 ± 0.2 mPa·s | viscosity (308.15 K, x1 = 0.195): 4.908 ± 0.3 mPa·s | viscosity (308.15 K, x1 = 0.226): 6.784 ± 0.41 mPa·s | viscosity (308.15 K, x1 = 0.261): 8.888 ± 0.54 mPa·s | mass density (308.15 K, x1 = 0.022): 1067.5 ± 0.6 kg/m3 | mass density (308.15 K, x1 = 0.045): 1126.8 ± 0.5 kg/m3 | mass density (308.15 K, x1 = 0.066): 1172.2 ± 0.5 kg/m3 | mass density (308.15 K, x1 = 0.085): 1205.7 ± 0.4 kg/m3 | mass density (308.15 K, x1 = 0.114): 1247.7 ± 0.4 kg/m3 | mass density (308.15 K, x1 = 0.152): 1290.5 ± 0.4 kg/m3 | mass density (308.15 K, x1 = 0.195): 1328.4 ± 0.4 kg/m3 | mass density (308.15 K, x1 = 0.226): 1350.4 ± 0.5 kg/m3 | mass density (308.15 K, x1 = 0.261): 1371.2 ± 0.5 kg/m3 | viscosity (313.15 K, x1 = 0.022): 0.867 ± 0.052 mPa·s | viscosity (313.15 K, x1 = 0.045): 1.046 ± 0.063 mPa·s | viscosity (313.15 K, x1 = 0.066): 1.294 ± 0.078 mPa·s | viscosity (313.15 K, x1 = 0.085): 1.581 ± 0.096 mPa·s | viscosity (313.15 K, x1 = 0.114): 2.082 ± 0.13 mPa·s | viscosity (313.15 K, x1 = 0.152): 2.894 ± 0.17 mPa·s | viscosity (313.15 K, x1 = 0.195): 4.33 ± 0.26 mPa·s | viscosity (313.15 K, x1 = 0.226): 5.9 ± 0.36 mPa·s | viscosity (313.15 K, x1 = 0.261): 7.704 ± 0.47 mPa·s | mass density (313.15 K, x1 = 0.022): 1065.2 ± 0.6 kg/m3 | mass density (313.15 K, x1 = 0.045): 1124.3 ± 0.5 kg/m3 | mass density (313.15 K, x1 = 0.066): 1169.6 ± 0.5 kg/m3 | mass density (313.15 K, x1 = 0.085): 1202.9 ± 0.4 kg/m3 | mass density (313.15 K, x1 = 0.114): 1244.9 ± 0.4 kg/m3 | mass density (313.15 K, x1 = 0.152): 1287.5 ± 0.4 kg/m3 | mass density (313.15 K, x1 = 0.195): 1325.3 ± 0.4 kg/m3 | mass density (313.15 K, x1 = 0.226): 1347.3 ± 0.5 kg/m3 | mass density (313.15 K, x1 = 0.261): 1368 ± 0.5 kg/m3 | viscosity (318.15 K, x1 = 0.022): 0.8 ± 0.048 mPa·s | viscosity (318.15 K, x1 = 0.045): 0.96 ± 0.058 mPa·s | viscosity (318.15 K, x1 = 0.066): 1.184 ± 0.072 mPa·s | viscosity (318.15 K, x1 = 0.085): 1.44 ± 0.087 mPa·s | viscosity (318.15 K, x1 = 0.114): 1.887 ± 0.11 mPa·s | viscosity (318.15 K, x1 = 0.152): 2.604 ± 0.16 mPa·s | viscosity (318.15 K, x1 = 0.195): 3.868 ± 0.23 mPa·s | viscosity (318.15 K, x1 = 0.226): 5.148 ± 0.31 mPa·s | viscosity (318.15 K, x1 = 0.261): 6.721 ± 0.41 mPa·s | mass density (318.15 K, x1 = 0.022): 1062.7 ± 0.6 kg/m3 | mass density (318.15 K, x1 = 0.045): 1121.8 ± 0.5 kg/m3 | mass density (318.15 K, x1 = 0.066): 1166.9 ± 0.5 kg/m3 | mass density (318.15 K, x1 = 0.085): 1200.1 ± 0.4 kg/m3 | mass density (318.15 K, x1 = 0.114): 1241.9 ± 0.4 kg/m3 | mass density (318.15 K, x1 = 0.152): 1284.5 ± 0.4 kg/m3 | mass density (318.15 K, x1 = 0.195): 1322.2 ± 0.4 kg/m3 | mass density (318.15 K, x1 = 0.226): 1344.2 ± 0.4 kg/m3 | mass density (318.15 K, x1 = 0.261): 1364.8 ± 0.5 kg/m3 | viscosity (323.15 K, x1 = 0.022): 0.741 ± 0.045 mPa·s | viscosity (323.15 K, x1 = 0.045): 0.886 ± 0.054 mPa·s | viscosity (323.15 K, x1 = 0.066): 1.086 ± 0.066 mPa·s | viscosity (323.15 K, x1 = 0.085): 1.32 ± 0.08 mPa·s | viscosity (323.15 K, x1 = 0.114): 1.721 ± 0.1 mPa·s | viscosity (323.15 K, x1 = 0.152): 2.36 ± 0.14 mPa·s | viscosity (323.15 K, x1 = 0.195): 3.478 ± 0.21 mPa·s | viscosity (323.15 K, x1 = 0.226): 4.527 ± 0.27 mPa·s | viscosity (323.15 K, x1 = 0.261): 5.895 ± 0.36 mPa·s
